The text below walks through data of patent EP0516015A1, “Substituted decarestrictines, methods for their preparation and use thereof” (HOECHST AKTIENGESELLSCHAFT, priority 1991, dated 1992).

One data set relates to Cholesterinbiosynthese. The data set is described as follows: Inhibition of cholesterol biosynthesis from [14C] sodium acetate in HEP-G2 cell monolayers. The data set is classed as cell-based. The note with it: Homo sapiens, HepG2, HEP-G2-Zellen, 1 h preincubation, 3 h with [14C] sodium acetate, read-out: Cholesterin in Prozent der Kontrolle; for activity at 0.01 µM: Konzentration 10⁻⁸ M. From the text: Monolayer von HEP-G2-Zellen in lipoproteinfreiem Nährmedium werden mit entsprechenden Konzentrationen der zu prüfenden Substanzen aus den Beispielen 1, 3, 4, 5, 6, 8 und 15 eine Stunde vorinkubiert. Nach Zugabe der ¹⁴C-markierten Biosynthesevorstufe [¹⁴C]Natriumacetat wird die Inkubation für 3 Stunden fortgesetzt. Danach wird ein Teil der Zellen alkalisch verseift, bei vorheriger Zugabe eines internen Standards von ³H-Cholesterin. Die Lipide der verseiften Zellen werden mit einem Gemisch aus Chloroform-Methanol extrahiert. Dieses Lipidgemisch wird nach Zusatz von Trägercholesterin präparativ dünnschichtchromatographisch aufgetrennt, die Cholesterinbande nach Anfärbung isoliert und die aus dem ¹⁴C-Precursor gebildete Menge ¹⁴C-Cholesterin szintigraphisch bestimmt. In einem aliquoten Teil der Zellen wurde Zellprotein bestimmt, sodaß die in der Zelleinheit pro mg Zellprotein aus ¹⁴C-Vorläufer gebildete Menge ¹⁴C-Cholesterin berechnet werden kann. Zum Vergleich für die Hemmwirkung eines zugesetzten Prüfpräparates dient die Kontrolle, so daß direkt die Hemmung der Cholesterinbiosynthese bei einer bestimmten molaren Konzentration des Prüfpräparates im Medium angegeben werden kann. In aliquoten Anteilen der Zellkultur wird die Intaktheit der Zellkultur und die fehlende Zellschädigung durch Präparateeinwirkung morphologisch (Lichtmikroskopie) beurteilt und biochemisch durch Bestimmung der Laktat-Dehydrogenase Ausschüttung im Inkubationsmedium gemessen. Als Standardpräparat wurde ®Lovastatin (Merck-Sharp-Dohm) benutzt.

The test system of another data set is Vaccina. Nature of the data set: microbe, parasite or virus in culture. The data set is classed as cell-based. Conditions: 72 h, read-out: MHK.
A further data set can be described thus: in vitro. The note with it: hela or vero cells.
For the next data set, the system named is Herpes II. The data set is described as follows: Antiviral activity in cell culture (CPE, neutral red uptake). In kind it is cell-based. The note with it: HeLa or Vero cells, 72 h, MHK = concentration at which about 50 % of the cells survived the infection.
Another data set relates to Influenza A. Nature of the data set: microbe, parasite or virus in culture. The data set is classed as cell-based. Conditions: 72 h, read-out: MHK.
The subject of the next data set is Rhinovirus II. The data set is described as follows: Antiviral activity in cell culture (CPE, neutral red uptake). The data set is classed as cell-based. The note with it: Enterovirus; Rhino. II; HeLa or Vero cells, 72 h; MHK = concentration at which about 50 % of the cells survived the infection.
Another data set deals with Herpes I. The description is as above. In kind it is cell-based. The note with it: HeLa or Vero cells, 72 h, MHK = concentration at which about 50 % of the cells survived the infection.

Each structure is given as a SMILES string. ≈ marks a conversion by molar mass, not a printed value.

Turning to `CC[C@H](C)C(=O)O[C@H]1C[C@@H](C)C=C2C=C[C@H](C)[C@H](CC[C@@H]3C[C@@H](O)CC(=O)O3)[C@H]21` [Lovastatin, reference compound], the activity at 0.01 µM with Cholesterinbiosynthese came out at 55%.

As to `CC1CC(O[C@H]2O[C@H](COCc3ccccc3)[C@@H](OCc3ccccc3)[C@H](OCc3ccccc3)[C@H]2OCc2ccccc2)CCC2OC(C)(C)OC2CC(=O)O1` (stereo partly drawn) [Verbindung 1, 4,5-Dihydroxy-O-isopropyliden-10-methyl-1-oxa-8(2,3,4,6-tetra-O-benzyl-α-D-glucopyranosyl-oxy)-2-cyclodecanon], in the data set with Cholesterinbiosynthese, the activity at 0.01 µM was 41%.

On to `COC1C=CC(OC)C(OC)CC(=O)OC(C)C1` (stereo not shown) [Verbindung 3, 10-Methyl-4,5,8-trimethoxy-1-oxa-6-cyclodecen-2-on], for which the activity at 1 µM with Cholesterinbiosynthese (Konzentration 10⁻⁶ M) stood at 28%. Besides, the activity at 0.01 µM in the data set on Cholesterinbiosynthese came out at 33%.

For `CC(=O)OC1CCC(O)C(O)CC(=O)OC(C)C1` (stereo not shown) [Verbindung 4, 8-Acetyloxy-4,5-dihydroxy-10-methyl-1-oxa-cyclodecan-2-on], the activity at 0.01 µM in the data set with Cholesterinbiosynthese came to 45%.

For the compound `CC1CC(O)C2OC2C(O)C(O)CC(=O)O1` (stereo not shown) [Verbindung 5, 2-Carbonyl-10-methyl-1-oxa-4,5,8-trihydroxy-6-cyclodecenoxid], the activity at 0.01 µM with Cholesterinbiosynthese is 33%.

Consider `CC(=O)OC1/C=C/C(OC(C)=O)C(OC(C)=O)CC(=O)OC(C)C1` (stereo not shown) [Verbindung 6, 10-Methyl-1-oxa-4,5,8-triacetyloxy-6-cyclodecen-2-on], for which the EC50 was 0.49 µg/mL (≈ 1.43 µM) in the data set on Vaccina; 0.55 µg/mL (≈ 1.61 µM) in the data set on Herpes II; 14 µg/mL (≈ 40.9 µM) with Influenza A; 44.4 µg/mL (≈ 130 µM) in the data set on Rhinovirus II; 0.55 µg/mL (≈ 1.61 µM) with Herpes I. In the data set “in vitro”, this compound had an MNTC at 72 h of 133 µg/mL. In addition, the activity at 10 µM in the data set on Cholesterinbiosynthese (Konzentration 10⁻⁵ M) is 32%. For the same compound, in the data set with Cholesterinbiosynthese (Konzentration 10⁻⁷ M), the activity at 0.1 µM is 30%.

Regarding `CC1CC(OC=O)C=CC(O)C(O)CC(=O)O1` (stereo not shown) [Verbindung 8, 4,5-Dihydroxy-8-formyl-oxy-10-methyl-1-oxa-6-cyclodecen-2-on], in the data set with Cholesterinbiosynthese, the activity at 0.01 µM is 67%.

In the case of `CC1CC(O)CCC(O)C(O)CC(=O)O1` (stereo not shown) [Verbindung 15, 10-Methyl-1-oxa-4,5,8-trihydroxy-cyclodecan-2-on], in the data set on Cholesterinbiosynthese, the activity at 0.01 µM came out at 73%.
